Assay results reported in patent publication US12507703B2, “Methods, devices and compositions for preserving human milk” (The Trustees of Princeton University, priority 2023, dated 2025).
Where “and” joins values, the source holds several entries; their conditions need not be identical. Identical values can stand only once. Like-named read-outs stand apart in the source and are kept apart here.

Tested on: lipase
Experiment: Lipase/lipolysis assay (EnzChek Lipase Substrate, quenched BODIPY-fatty acid conjugate) on stored human milk; note: test concentration or dose not given here

Row | Compound | Lipase (RFU) | Lipase (RFU) ((monohydrate))
1 | C=C1C[C@@]23CC[C@H]4[C@@](C)(CCC[C@@]4(C)C(=O)O)[C@@H]2CC[C@]1(O[C@@H]1O[C@H](CO)[C@@H](O)[C@H](O)[C@H]1O[C@@H]1O[C@H](CO)[C@@H](O)[C@H](O)[C@H]1O)C3 [Steviolbioside] | 1061.907 RFU | 
2 | O-Nornuciferine | 773.2053 RFU | 
3 | C[C@H](CCC(=O)O)[C@H]1CC[C@H]2[C@@H]3[C@H](O)C[C@@H]4C[C@H](O)CC[C@]4(C)[C@H]3C[C@H](O)[C@]12C [Cholic acid (sodium)] | 828.0633 RFU and 816.2579 RFU | 
4 | Chicoric acid | 1008.153 RFU | 
5 | CC(C)=C[C@H]1C[C@](C)(O)[C@@H]2[C@H]3CC[C@@H]4[C@@]5(C)CC[C@H](O[C@@H]6OC[C@H](O)[C@H](O[C@@H]7O[C@H](CO)[C@@H](O)[C@H](O)[C@H]7O[C@@H]7OC[C@@H](O)[C@H](O)[C@H]7O)[C@H]6O[C@@H]6O[C@@H](C)[C@H](O)[C@@H](O)[C@H]6O)C(C)(C)[C@@H]5CC[C@@]4(C)[C@@]34CO[C@@]2(C4)O1 [Jujuboside B] | 877.6814 RFU | 
6 | O=Cc1ccc[nH]1 [Pyrrole-2-carboxaldehyde] | 882.4774 RFU | 
7 | CC1(C)S[C@@H]2[C@H](NC(=O)[C@H](N)c3ccccc3)C(=O)N2[C@H]1C(=O)[O-].[Na+] [Ampicillin (sodium)] | 844.0223 RFU | 
8 | CC(C)=CCc1c(O)ccc2ccc(=O)oc12 [Osthenol] | 798.6222 RFU | 
9 | CCCCCCCCCCC[C@@H](C[C@@H]1OC(=O)[C@H]1CCCCCC)OC(=O)[C@H](CC(C)C)NC=O [Orlistat, reference compound] | 234.506 RFU | 
10 | Nc1nc2c(ncn2[C@@H]2O[C@@H]3COP(=O)(O)O[C@H]3[C@H]2O)c(=O)[nH]1 [Guanosine-3′,5′-cyclic monophosphate] | 813.7484 RFU and 1141.322 RFU | 
11 | COn1cc(CC#N)c2ccccc21 [Caulilexin C] | 998.4752 RFU | 
12 | CC(C)=CCC[C@](C)(O)[C@H]1CC[C@]2(C)[C@@H]1[C@H](O)C[C@@H]1[C@@]3(C)CC[C@H](O)C(C)(C)[C@@H]3[C@@H](O[C@@H]3O[C@H](CO)[C@@H](O)[C@H](O)[C@H]3O)C[C@]12C [Ginsenoside Rh1] | 665.2277 RFU | 
13 | COc1cc(OC)c2c(=O)cc(-c3ccc(OC)c(OC)c3)oc2c1 [5,7,3′,4′-Tetramethoxyflavone] | 1023.427 RFU | 
14 | OC[C@H](O)C(O)[C@@H](O)CO [L-Arabitol] | 912.8862 RFU | 
15 | CC(C)=C1CC[C@@H](C)CC1=O [Pulegone] | 791.7693 RFU and 1146.187 RFU | 
16 | O=C1O[C@H]2[C@@H]3OC(=O)c4cc(O)c(O)c(O)c4-c4c(O)c(O)c5oc(=O)c6c(c(O)c(O)c7oc(=O)c4c5c76)-c4c(cc(O)c(O)c4O)C(=O)OC[C@H]3OC(O)[C@@H]2OC(=O)c2cc(O)c(O)c(O)c2-c2c1cc(O)c(O)c2O (mixture of isomers) [Punicalagin] | 646.9241 RFU | 
17 | Cc1ccc(C(C)C)cc1O [Carvacrol] | 695.2525 RFU and 1199.593 RFU | 
18 | CC1(C)[C@@H](O[C@H]2O[C@H](C(=O)O)[C@@H](O)[C@H](O)[C@H]2O[C@@H]2O[C@H](C(=O)O)[C@@H](O)[C@H](O)[C@H]2O)CC[C@]2(C)[C@H]3C(=O)C=C4[C@@H]5C[C@@](C)(C(=O)O)CC[C@]5(C)CC[C@@]4(C)[C@]3(C)CC[C@@H]12 [Ammonium glycyrrhizinate] | 918.7261 RFU | 
19 | Erythrosine B | 836.3958 RFU | 
20 | C[C@]12CC[C@@H](O)C[C@H]1CC[C@@H]1[C@@H]2CC[C@]2(C)C(=O)CC[C@@H]12 [Etiocholanolone] | 868.806 RFU | 
21 | CC(C)(O)[C@@H]1Cc2cc3ccc(=O)oc3cc2O1 [S-(+)-Marmesin] | 984.7966 RFU | 
22 | NCC[C@H](N)C(=O)O [L-DABA] | 650.1144 RFU | 

Row | Compound | Lipase (RFU) | Lipase (RFU) ((monohydrate))
23 | COc1ccc2c(c1)OC(O)C(=O)N2O (stereo not shown) [DIMBOA] | 910.6705 RFU | 
24 | O=c1cc(-c2ccccc2)oc2cc(O)cc(O[C@@H]3O[C@H](CO)[C@@H](O)[C@H](O)[C@H]3O)c12 [Toringin] | 1102.623 RFU | 
25 | COc1ccc(C(=O)O)cc1OC [Veratric acid] | 944.3491 RFU | 
26 | O=C(O)C(O)Cc1c[nH]c2ccccc12 (stereo not shown) [Indolelactic acid] | 641.0066 RFU | 
27 | C/C(=C\CNc1ncnc2c1ncn2[C@@H]1O[C@H](CO)[C@@H](O)[C@H]1O)CO [trans-Zeatinriboside] | 823.084 RFU | 
28 | CCCCC/C=C\C/C=C\CCCCCCCC(=O)O[C@H]1CC[C@@]2(C)C(=CC[C@H]3[C@@H]4CC[C@H]([C@H](C)CCCC(C)C)[C@@]4(C)CC[C@@H]32)C1 [Cholesteryl linoleate] | 922.3562 RFU | 
29 | C=C1C(=O)O[C@@H]2C[C@@]3(C)CCC[C@H](C)C3=C[C@H]12 [Alantolactone] | 900.1725 RFU | 
30 | COc1ccc([C@@H]2CC(=O)c3c(O)cc(O[C@@H]4O[C@H](CO)[C@@H](O)[C@H](O)[C@H]4O)cc3O2)cc1 [Isosakuranin] | 864.5248 RFU | 
31 | CC(C)CCC[C@@H](C)[C@H]1CC[C@H]2C3=C(CC[C@]12C)[C@@]1(C)CC[C@H](O)CC1=CC3 [8-Dehydrocholesterol] | 707.3733 RFU | 
32 | C[Se]C[C@H](N)C(=O)O [Se-Methylselenocysteine] | 889.6084 RFU | 
33 | Nc1ncnc2c1ncn2[C@H]1C[C@H](O)[C@@H](CO)O1.O [2′-Deoxyadenosine monohydrate] | 945.7798 RFU | 
34 | OC[C@H]1O[C@H](OC[C@H]2O[C@H](OC[C@H]3O[C@H](O[C@]4(CO)O[C@H](CO)[C@@H](O)[C@@H]4O)[C@H](O)[C@@H](O)[C@@H]3O)[C@H](O)[C@@H](O)[C@H]2O)[C@H](O)[C@@H](O)[C@H]1O [Stachyose] | 882.4617 RFU | 
35 | β-D-Glucan from barley | 995.347 RFU | 
36 | C[C@H](CC(=O)C[C@](C)(O)[C@@H]1CC(=O)[C@@]2(C)C3=C(C(=O)C[C@]12C)[C@@]1(C)CC[C@H](O)C(C)(C)[C@@H]1C[C@@H]3O)C(=O)O [Ganoderic acid I] | 969.9191 RFU | 
37 | CN1[C@@H]2CC[C@H]1C[C@@H](OC(=O)C(CO)c1ccccc1)C2 (stereo partly shown) [Atropine] | 1104.016 RFU | 
38 | CC1(C)CC[C@]2(C(=O)O)CC[C@]3(C)C(=CC[C@@H]4[C@@]5(C)CC[C@H](O[C@@H]6O[C@H](C(=O)O)[C@@H](O)[C@H](O)[C@H]6O)C(C)(C)[C@@H]5CC[C@]43C)[C@@H]2C1 [Calenduloside E] | 1034.138 RFU | 
39 | CC(C)=CCc1cc2c(cc1O)oc(=O)c1c3ccc(O)cc3oc21 [Psoralidin] | 1084.87 RFU | 
40 | COc1cc(O)c2c(=O)cc(-c3ccc(O)c(O)c3)oc2c1 [Hydroxygenkwanin] | 874.9866 RFU | 
41 | C[C@H](O)[C@H](O)[C@@H](O)[C@@H](O)C=O.O [Rhamnose (monohydrate)] |  | 978.8722 RFU and 922.0222 RFU
42 | CC1(C)CC[C@]2(C(=O)O[C@@H]3O[C@H](CO)[C@@H](O)[C@H](O)[C@H]3O)CC[C@]3(C)C(=CC[C@@H]4[C@@]5(C)CC[C@H](O[C@@H]6O[C@H](C(=O)O)[C@@H](O)[C@H](O)[C@H]6O[C@@H]6O[C@H](CO)[C@@H](O)[C@H](O)[C@H]6O)C(C)(C)[C@@H]5CC[C@]43C)[C@@H]2C1 [Ginsenoside Ro] | 1082.912 RFU | 
43 | CC(=O)O[C@H](CC(=O)O)C[N+](C)(C)C.[Cl-] [Acetyl-L-carnitine (hydrochloride)] | 1004.353 RFU | 
